Earlier results on two compounds are cited in publication PMC5517430, “2,3,7,8-Tetrachlorodibenzo-p-dioxin (TCDD)-elicited effects on bile acid homeostasis: Alterations in biosynthesis, enterohepatic circulation, and microbial metabolism” (Scientific Reports, 2017).

The data set deals with FXR. Further details: method as in PMID 23395169. The settings on record: cited from earlier work.

On to `C[C@H](CCC(=O)NCCS(=O)(=O)O)[C@H]1CC[C@H]2[C@@H]3[C@@H](O)[C@@H](O)[C@@H]4C[C@H](O)CC[C@]4(C)[C@H]3CC[C@]12C` [T-β-MCA], for which the FXR antagonism entry is “competitive antagonists”.
As to `C[C@H](CCC(=O)NCCS(=O)(=O)O)[C@H]1CC[C@H]2[C@@H]3[C@H](O)[C@@H](O)[C@@H]4C[C@H](O)CC[C@]4(C)[C@H]3CC[C@]12C` [T-α-MCA, tauro-α-muricholic acid], the FXR antagonism entry is recorded as “competitive antagonists”.
